# Measurements taken from ChEMBL document CHEMBL4138141, “Rapid generation of a novel DPP-4 inhibitor with long-acting properties: SAR study and PK/PD evaluation” (Eur J Med Chem, 2017).
# Key:
# [1] = Half life in rat liver microsomes at […] by LC-MS/MS analysis; format: ADME, microsome
# [2] = Half life in human liver microsomes at […] by LC-MS/MS analysis; format: ADME, microsome
# [3] = Apparent volume of distribution during terminal phase in Sprague-Dawley rat at 25 mg/kg, po or 5 mg/kg, iv administered as single dose by LC-MS/MS analysis; format: ADME, organism-based; settings: in vivo, read-out: Vz/F
# Rattus norvegicus [4] = test: AUC (0 to t) in Sprague-Dawley rat at 25 mg/kg, po administered as single dose by LC-MS/MS analysis; format: ADME, organism-based; settings: in vivo
# [5] = Tmax in Sprague-Dawley rat at 25 mg/kg, po or 5 mg/kg, iv administered as single dose by LC-MS/MS analysis; format: ADME, organism-based; settings: in vivo
# Rattus norvegicus [6] = test: Clearance in Sprague-Dawley rat at 25 mg/kg, po or 5 mg/kg, iv administered as single dose by LC-MS/MS analysis; format: ADME, organism-based; settings: in vivo
# Rattus norvegicus [7] = test: Oral bioavailability in Sprague-Dawley rat at 25 mg/kg administered as single dose by LC-MS/MS analysis; format: ADME, organism-based; settings: in vivo
# [8] = Half life in Sprague-Dawley rat at 25 mg/kg, po administered as single dose by LC-MS/MS analysis; format: ADME, organism-based; settings: in vivo
# [9] = Metabolic stability in human liver microsomes assessed as parent compound remaining at […] incubated for 5 mins measured up to 60 mins by LC-MS/MS analysis; format: ADME, microsome; settings: read-out: Stability
# [10] = Metabolic stability in rat liver microsomes assessed as parent compound remaining at […] incubated for 5 mins measured up to 60 mins by LC-MS/MS analysis; format: ADME, microsome; settings: read-out: Stability
# [11] = Metabolic stability in monkey liver microsomes assessed as parent compound remaining at […] incubated for 5 mins measured up to 60 mins by LC-MS/MS analysis; format: ADME, Macaca mulatta, microsome; settings: rhesus monkey, read-out: Stability
# [12] = Metabolic stability in mouse liver microsomes assessed as parent compound remaining at […] incubated for 5 mins measured up to 60 mins by LC-MS/MS analysis; format: ADME, microsome; settings: read-out: Stability
# [13] = Metabolic stability in dog liver microsomes assessed as parent compound remaining at […] incubated for 5 mins measured up to 60 mins by LC-MS/MS analysis; format: ADME, Canis lupus familiaris, microsome; settings: read-out: Stability
half-life [1] [min],half-life [2] [min],SMILES,further results
197,> 200,CS(=O)(=O)c1ccccc1-c1c[nH]c2c(=O)n(Cc3cc(F)ccc3C#N)c(N3CCC[C@@H](N)C3)nc12,–
> 60,200,N#Cc1ccc(F)cc1Cn1c(N2CCC[C@@H](N)C2)nc2cc[nH]c2c1=O,Vd/F [3]: 106 L/kg; AUCt (Rattus norvegicus [4]): 1.88 µg·h/mL; Tmax [5]: 8.4 min; CL (Rattus norvegicus [6]): 13.3 L/h/kg; F (Rattus norvegicus [7]): 10.6%; half-life [8]: 328 min
95.2,> 200,CS(=O)(=O)c1ccc(-c2c[nH]c3c(=O)n(Cc4cc(F)ccc4C#N)c(N4CCC[C@@H](N)C4)nc23)c(F)c1,–
72.3,181,N#Cc1ccc(F)cc1Cn1c(N2CCC[C@@H](N)C2)nc2c(-c3ccc(F)cc3)c[nH]c2c1=O,–
> 200,43.3,CC(C)S(=O)(=O)c1ccc(-c2c[nH]c3c(=O)n(Cc4cc(F)ccc4C#N)c(N4CCC[C@@H](N)C4)nc23)cc1,–
47,160,N#Cc1ccc(F)cc1Cn1c(N2CCC[C@@H](N)C2)nc2c(-c3ccsc3)c[nH]c2c1=O,Vd/F [3]: 104 L/kg; AUCt (Rattus norvegicus [4]): 2.92 µg·h/mL; Tmax [5]: 140 min; CL (Rattus norvegicus [6]): 8.8 L/h/kg; F (Rattus norvegicus [7]): 33.4%; half-life [8]: 473 min
37.5,133,N#Cc1ccc(F)cc1Cn1c(N2CCC[C@@H](N)C2)nc2c(Br)c[nH]c2c1=O,–
98.9,> 200,CS(=O)(=O)c1cccc(-c2c[nH]c3c(=O)n(Cc4cc(F)ccc4C#N)c(N4CCC[C@@H](N)C4)nc23)c1,–
50.3,98.2,N#Cc1ccc(F)cc1Cn1c(N2CCC[C@@H](N)C2)nc2c(F)c[nH]c2c1=O,–
> 200,> 200,N#Cc1ccc(F)cc1Cn1c(N2CCC[C@@H](N)C2)nc2c(-c3ccc(S(N)(=O)=O)cc3)c[nH]c2c1=O,–
167,> 200,CS(=O)(=O)c1ccc(-c2c[nH]c3c(=O)n(Cc4cc(F)ccc4C#N)c(N4CCC[C@@H](N)C4)nc23)cc1F,–
> 200,> 200,CS(=O)(=O)c1ccc(-c2c[nH]c3c(=O)n(Cc4cc(F)ccc4C#N)c(N4CCC[C@@H](N)C4)nc23)cc1,–
36.5,35.1,N#Cc1ccc(F)cc1Cn1c(N2CCC[C@@H](N)C2)nc2c(-c3cccs3)c[nH]c2c1=O,–
> 200,> 200,Cn1c(=O)cc(N2CCC[C@@H](N)C2)n(Cc2cc(F)ccc2C#N)c1=O [TRELAGLIPTIN],Vd/F [3]: 48.2 L/kg; AUCt (Rattus norvegicus [4]): 6.82 µg·h/mL; remaining at 60 min [9]: > 80%; Tmax [5]: 42 min; CL (Rattus norvegicus [6]): 7.66 L/h/kg; remaining at 60 min [10]: > 80%; remaining at 60 min [11]: > 80%; F (Rattus norvegicus [7]): 46.9%; remaining at 60 min [12]: > 80%; remaining at 60 min [13]: > 80%; half-life [8]: 308 min
